Results taken from patent US4705805A, “Antithrombotic agent” (priority 1978, dated 1987).

Key:
[1] = tested on: rabbit blood platelets (platelet rich plasma), ADP-induced aggregation; assay: inhibition of platelet aggregation in rabbit platelet rich plasma (in vitro), induced by ADP; format: cell-based; details: rabbit PRP, ADP 10^-5 M; for inhibition at 30 µg/mL / inhibition at 100 µg/mL / inhibition at 10 µg/mL / inhibition at 3 µg/mL: Oryctolagus cuniculus, Platelet, read-out: percentage of inhibition, ADP; for inhibition at 30 µg/mL: 30 μg/ml; for inhibition at 10 µg/mL: 10 μg/ml; for inhibition at 3 µg/mL: 3 μg/ml
Method: (§1) In this example, the inhibition of platelet aggregation in rabbit platelet rich plasma (in vitro) is tested.
(§2) In this test, 9 vol. of blood is sampled from the carotid artery of rabbits (2 to 2.5 Kg) and placed in a silicon-coated flask containing 1 vol. of 3.8% sodium citrate. The thus obtained blood is centrifuged at 1,000 rpm for 15 minutes to obtain platelet rich plasma (referred to as "PRP" hereinafter). The aggregation of blood platelets is observed using an aggregometer (made by Bryston Co.) and the degree of aggregation after the addition of aggregation promoting substances is measured by nephelometry, i.e., through increase in light transmission.
(§3) The PRP (0.9 ml) is placed in a silicon-coated cuvett of the aggregometer. Then, 0.05 ml of physiological saline solution containing various concentrations of test reagents or control reagents is added and the mixture is allowed to stand for one minute. Compounds promoting aggregation are then added and the absorbancy of the solution is measured and the percent inhibition of aggregation is calculated according to the following equation: [formula] C: Transmittancy showing the maximum percent aggregation by physiological saline solution
(§4) D: Transmittancy showing the maximum percent aggregation by sample
(§5) Test for the inhibition of platelet aggregation induced by ADP, collagen and thrombin.

[2] = tested on: rabbit blood platelets (platelet rich plasma), collagen-induced aggregation; assay: inhibition of platelet aggregation in rabbit platelet rich plasma (in vitro), induced by collagen; format: cell-based; details: rabbit PRP; for inhibition at 30 µg/mL / inhibition at 100 µg/mL / inhibition at 10 µg/mL / inhibition at 1 µg/mL / inhibition at 3 µg/mL: Oryctolagus cuniculus, Platelet, read-out: percentage of inhibition, collagen; for inhibition at 30 µg/mL: 30 μg/ml; for inhibition at 10 µg/mL: 10 μg/ml; for inhibition at 1 µg/mL: 1 μg/ml; for inhibition at 3 µg/mL: 3 μg/ml
Method: as §1, §2, §3, §4, §5

[3] = acute toxicity, Behrens-Karber's method; format: in vivo; details: in vivo; mouse, oral
Method: In this example, the acute toxicity of compounds of the invention is determined by Behrens-Karber's method using, 5 male dd-strain for each group weighing 20±1 g. A 0.3% CMC suspension of the test compound (concentration of the test compound: 100 mg/ml) is then orally administered to each mouse.

[4] = tested on: human platelet rich plasma, ADP-induced aggregation; assay: inhibition of platelet aggregation in human platelet rich plasma, induced by ADP; format: cell-based; details: human PRP, read-out: percentage inhibition, ADP
Method: as §2, §3, §4
(§6) In this example, the same procedures are repeated as in Example 10 except that human platelet rich plasma is used in place of rabbit platelet rich plasma.

[5] = tested on: human platelet rich plasma, collagen-induced aggregation; assay: inhibition of platelet aggregation in human platelet rich plasma, induced by collagen; format: cell-based; details: human PRP, read-out: percentage inhibition, collagen
Method: as §2, §3, §4, §6

Molecule	inhibition at 30 µg/mL [1]	inhibition at 100 µg/mL ([1]; 100 μg/ml)	inhibition at 30 µg/mL [2]	inhibition at 100 µg/mL ([2]; 100 μg/ml)	further results
2,2'-dithiobis(N-naphthylbenzamide) [Compound XXXIX]	–	–	–	–	percentage of inhibition, ADP ([1]; 100 μg/ml): 25%; percentage of inhibition, collagen ([2]; 100 μg/ml): 12%
CCCCNC(=O)c1ccccc1SSc1ccccc1C(=O)NCCCC [Compound I, 2,2'-dithiobis(N-n-butylbenzamide)]	13.4%	46.6%	16.5%	100%	LD50 [3]: ≥ 300 mg/kg
O=C(NCc1ccccc1)c1ccccc1SSc1ccccc1C(=O)NCc1ccccc1 [Compound II, 2,2'-dithiobis(N-benzylbenzamide)]	–	2.7%	–	1.2%	LD50 [3]: ≥ 300 mg/kg
CCCCCCCCCCCCNC(=O)c1ccccc1SSc1ccccc1C(=O)NCCCCCCCCCCCC [Compound VI, 2,2'-dithiobis(N-dodecylbenzamide)]	0%	35%	0%	89%	–
CCCCCCCCCCCCCCCCCCNC(=O)c1ccccc1SSc1ccccc1C(=O)NCCCCCCCCCCCCCCCCCC [Compound VII, 2,2'-dithiobis(N-octadecylbenzamide)]	0%	10%	0%	38%	–
CCCCN(CCCC)C(=O)c1ccccc1SSc1ccccc1C(=O)N(CCCC)CCCC [Compound VIII, 2,2'-dithiobis(N-dibutylbenzamide)]	0%	9%	0%	13%	LD50 [3]: ≥ 1000 mg/kg
O=C(Nc1ccccc1Cl)c1ccccc1SSc1ccccc1C(=O)Nc1ccccc1Cl [Compound X, 2,2'-dithiobis(N-o-chlorophenylbenzamide)]	24%	96%	63%	100%	inhibition at 10 µg/mL [1]: 0%; inhibition at 10 µg/mL [2]: 4%; LD50 [3]: ≥ 1000 mg/kg
O=C(Nc1cccc(Cl)c1)c1ccccc1SSc1ccccc1C(=O)Nc1cccc(Cl)c1 [Compound XI, 2,2'-dithiobis(N-m-chlorophenylbenzamide)]	29%	96%	99%	100%	inhibition at 10 µg/mL [1]: 0%; inhibition at 10 µg/mL [2]: 0%
O=C(c1ccccc1SSc1ccccc1C(=O)N(c1ccccc1)c1ccccc1)N(c1ccccc1)c1ccccc1 [Compound XIII, 2,2'-dithiobis(N-diphenylbenzamide)]	16%	60%	12.2%	47%	–
CC(CCc1ccccc1)NC(=O)c1ccccc1SSc1ccccc1C(=O)NC(C)CCc1ccccc1 (stereo not drawn) [Compound XIV, 2,2'-dithiobis[N-(1-methyl-3-phenylpropyl)]benzamide]	28%	–	24%	–	–
O=C(NCCCO)c1ccccc1SSc1ccccc1C(=O)NCCCO [Compound XVI, 2,2'-dithiobis(N-3-hydroxypropylbenzamide)]	–	88%	–	100%	inhibition at 3 µg/mL [1]: 42%; inhibition at 10 µg/mL [1]: 64%; inhibition at 1 µg/mL [2]: 8%; inhibition at 3 µg/mL [2]: 50%; inhibition at 10 µg/mL [2]: 78%
O=C(NCCCCO)c1ccccc1SSc1ccccc1C(=O)NCCCCO [Compound XVII, 2,2'-dithiobis(N-4-hydroxybutylbenzamide)]	45%	100%	100%	100%	inhibition at 3 µg/mL [2]: 0%; inhibition at 10 µg/mL [2]: 97%
CCCCCCCCCCCCCCCC(=O)OCCNC(=O)c1ccccc1SSc1ccccc1C(=O)NCCOC(=O)CCCCCCCCCCCCCCC [Compound XX, 2,2'-dithiobis(N-2-hexadecanoyloxyethylbenzamide)]	0%	23%	0%	33%	–
CCCCCCCCCCCC(=O)OCCCNC(=O)c1ccccc1SSc1ccccc1C(=O)NCCCOC(=O)CCCCCCCCCCC [Compound XXI, 2,2'-dithiobis(N-dodecanoyloxypropylbenzamide)]	5%	32%	0%	33%	–
CCCCCCCCCCCCCCCC(=O)OCCCNC(=O)c1ccccc1SSc1ccccc1C(=O)NCCCOC(=O)CCCCCCCCCCCCCCC [Compound XXII, 2,2'-dithiobis(N-hexadecanoyloxypropylbenzamide)]	0%	40%	0%	18%	–
CCCCCCCCCCCC(=O)OC(C)CNC(=O)c1ccccc1SSc1ccccc1C(=O)NCC(C)OC(=O)CCCCCCCCCCC (stereo not drawn) [Compound XXIII, 2,2'-dithiobis(N-2-dodecanoyloxypropylbenzamide)]	19%	93%	52%	100%	–
CCCCCCCCCCCCCCCC(=O)OC(C)CNC(=O)c1ccccc1SSc1ccccc1C(=O)NCC(C)OC(=O)CCCCCCCCCCCCCCC (stereo not drawn) [Compound XXIV, 2,2'-dithiobis(N-2-hexadecanoyloxypropylbenzamide)]	0%	59%	19%	86%	–
CN1CCN(C(=O)c2ccccc2SSc2ccccc2C(=O)N2CCN(C)CC2)CC1 [Compound XXXII, 2,2'-dithiobis(N'-methylbenzpiperazide)]	100%	–	100%	–	inhibition at 3 µg/mL [1]: 26%; inhibition at 10 µg/mL [1]: 62%; inhibition at 1 µg/mL [2]: 2%; inhibition at 3 µg/mL [2]: 59%; inhibition at 10 µg/mL [2]: 90%; inhibition at 30 µg/mL ([4]; 30 μg/ml): 15%; inhibition at 100 µg/mL ([4]; 100 μg/ml): 60%; inhibition at 30 µg/mL ([5]; 30 μg/ml): 34%; inhibition at 100 µg/mL ([5]; 100 μg/ml): 100%
O=C(c1ccccc1SSc1ccccc1C(=O)N1CCN(C(c2ccccc2)c2ccccc2)CC1)N1CCN(C(c2ccccc2)c2ccccc2)CC1 [Compound XXXIII, 2,2'-dithiobis(N'-diphenylmethylbenzpiperazide)]	16%	–	22%	–	–
COC(CNC(=O)c1ccccc1SSc1ccccc1C(=O)NCC(OC)OC)OC [Compound XXXIV, 2,2'-dithiobis(N-2,2-di-methoxyethylbenzamide)]	83%	–	100%	–	inhibition at 3 µg/mL [1]: 21%; inhibition at 10 µg/mL [1]: 35%; inhibition at 3 µg/mL [2]: 21%; inhibition at 10 µg/mL [2]: 87%
CCOCCCNC(=O)c1ccccc1SSc1ccccc1C(=O)NCCCOCC [Compound XXXV, 2,2'-dithiobis(N-3-ethyloxypropylbenzamide)]	–	35%	31%	100%	inhibition at 10 µg/mL [2]: 15%
O=C(NC1CCC(O)CC1)c1ccccc1SSc1ccccc1C(=O)NC1CCC(O)CC1 (stereo not drawn) [Compound XXXVI, 2,2'-dithiobis[N-(4-hydroxycyclohexyl)benzamide]]	–	35%	8%	95%	–
O=C(NCN1CCCCC1)c1ccccc1SSc1ccccc1C(=O)NCN1CCCCC1 [Compound XXXVII, 2,2'-dithiobis(N-piperidinylmethylbenzamide)]	–	20%	–	–	–
O=C(NCC(O)c1ccccc1)c1ccccc1SSc1ccccc1C(=O)NCC(O)c1ccccc1 (stereo not drawn) [Compound XXXVIII, 2,2'-dithiobis(N-2-hydroxy-2-phenylethylbenzamide)]	–	12%	–	19%	–
Nc1ncnc2c1ncn2[C@@H]1O[C@H](CO)[C@@H](O)[C@H]1O [adenosine, reference compound]	–	39%	–	–	–
